In US10100047B2, “Piperidine derivatives as orexin receptor antagonist” (SHANGHAI HAIYAN PHARMACEUTICAL TECHNOLOGY CO., LTD., priority 2014, dated 2018):
Where two headings read alike, the source gives them in different places.

How the values were obtained:
hOX1R = target: T1, hOX1R (Homo sapiens, UniProt O43613); assay: In vitro test of OX1R: calcium signal change in cells detected with FLIPR; assay type: cell-based; conditions: HEK293-OX1 stable cell strain, Fluo-4 AM calcium signal, Orexin A at EC70
T1 construct: expressed in transfected cells
T1 sequence (O43613 1-425): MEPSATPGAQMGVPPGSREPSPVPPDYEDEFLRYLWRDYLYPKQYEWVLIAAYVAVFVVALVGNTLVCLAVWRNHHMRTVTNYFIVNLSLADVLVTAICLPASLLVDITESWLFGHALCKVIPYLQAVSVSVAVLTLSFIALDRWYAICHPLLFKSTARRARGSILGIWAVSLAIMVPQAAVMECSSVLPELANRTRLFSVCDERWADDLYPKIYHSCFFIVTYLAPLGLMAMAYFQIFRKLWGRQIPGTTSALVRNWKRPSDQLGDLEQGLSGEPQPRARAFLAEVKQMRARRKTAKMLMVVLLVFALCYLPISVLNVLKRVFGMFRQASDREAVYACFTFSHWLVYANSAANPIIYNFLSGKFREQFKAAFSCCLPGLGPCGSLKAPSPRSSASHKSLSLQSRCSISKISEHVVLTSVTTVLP
Procedure: (§1) The inhibitive effect of a compound on OX1 and OX2 GPCR receptor was evaluated by detecting calcium signal change in cells with FLIPR, and IC50 value of compound was used as an indication.
(§2) Experimental Materials: • Cell line: HEK293-OX1 and OX2 stable cell strain • HEK293-OX1 cell culture media (DMEM, Invitrogen#11960-044, 10% serum Gibco#10099141, L-Glutamine 1×, Gibco#25030, sodium pyruvate 1×, Gibco #11360, Geneticin 300 μg/ml, Gibco #10131). • HEK293-OX2 cell culture media (DMEM, Invitrogen#11960-044, 10% serum Gibco#10099141, L-Glutamine 1×, Gibco#25030, sodium pyruvate 1×, Gibco #11360, Geneticin 300 μg/ml, Gibco #10131, Blasticin 2 μg/ml, Invitrogen # R21001). • Pancreatic enzyme (Invitrogen, #25200-072) • DPBS (Hyclone, #SH30028.01B) • Fluo-4 AM, Invitrogen# F14202 • F-127, Invitrogen # P3000MP • Probenecid, Sigma # P8761 • 384-well cell plate, Greiner #781946 • 384-well compound plate, Greiner #781280 • CO2 incubator, Thermo#371 • Centrifuge, Eppendorf #5810R • Vi-cell cytometry, Beckman Coulter • POD 810 Plate Assembler Automatic microplate pretreatment system • Labcyte FLIPR, Molecular Device.
(§3) a) cell inoculation (HEK293-OX1 and HEK293-OX2 cells) • 1) The medium trypsin, and DPBS were preheated at 37° C. under water bath. Culture medium of cells was sucked and cells were washed with 10 mL DPBS. • 2) The preheated trypsin was added into the culture bottle which was rotated so that trypsin uniformly covered the bottle. It was placed in an incubator (37° C., 5% CO2) to digest for 1-2 minutes; • 3) Each T150 was suspended with 10-15 mL of culture medium, and centrifuged at 800 rpm for 5 minutes. Cells were resuspended with 10 mL medium, and 1 mL of the cell re-suspension was sucked out and counted with Vi-cell cytometry. • 4) The OX1 cells were diluted with culture medium to 5×10^5 cells/mL, and OX2 cells were diluted to 4×10^5 cells/mL. The diluted cells were added into 384 plate (Greiner. 781946) with multichannel pipettes (50 μL/hole, OX1 cells: 25000 cells/hole; and OX2 cells: 20000 cells/hole). The cell plate was placed in an incubator (37° C., 5% CO2) overnight.
(§4) b) loading of the compound: • 1) DMSO was used to dilute the compound into 20 mM by using 3-fold dilution. 8 gradients in duplicate wells were used. Echo liquid handler was used to add the compound into a compound plate. Then 20 μL buffer was added to ensure that the final DMSO concentration was 0.1%.
(§5) c) FLIPR Experiment: • 1) The cell culture medium in 384-well plate was washed away with a vacuum pump. 30 μL fluorescent dye Fluo4AM was added. […] 8 gradients in duplicate wells were used. Then the DMSO plate was prepared and the DMSO concentration was 0.5%. The cell plate, Orexin A plate, and DMSO plate were placed into FLIPR respectively, and the fluorescence values were read. • 3) EC70 value was calculated based on EC50 value of Orexin A. 5×EC70 solution was prepared and added into a 384-well compound plate with multichannel pipettes. The plate was placed on ice for preservation. • 4) In the FLIPR, the compound plate, 5×EC70 plate, cell plate and FLIPR tips were placed respectively. The program was run and the fluorescence values were read.
(§6) d) Data Analysis: Prism5.0 was used to analysis the data, and the IC50 value of the compound was calculated.

hOX2R = target: T2, hOX2R (Homo sapiens, UniProt O43614); assay: In vitro test of OX2R: calcium signal change in cells detected with FLIPR; assay type: cell-based; conditions: HEK293-OX2 stable cell strain, Fluo-4 AM calcium signal, Orexin A at EC70
T2 construct: expressed in transfected cells
T2 sequence (O43614 1-444): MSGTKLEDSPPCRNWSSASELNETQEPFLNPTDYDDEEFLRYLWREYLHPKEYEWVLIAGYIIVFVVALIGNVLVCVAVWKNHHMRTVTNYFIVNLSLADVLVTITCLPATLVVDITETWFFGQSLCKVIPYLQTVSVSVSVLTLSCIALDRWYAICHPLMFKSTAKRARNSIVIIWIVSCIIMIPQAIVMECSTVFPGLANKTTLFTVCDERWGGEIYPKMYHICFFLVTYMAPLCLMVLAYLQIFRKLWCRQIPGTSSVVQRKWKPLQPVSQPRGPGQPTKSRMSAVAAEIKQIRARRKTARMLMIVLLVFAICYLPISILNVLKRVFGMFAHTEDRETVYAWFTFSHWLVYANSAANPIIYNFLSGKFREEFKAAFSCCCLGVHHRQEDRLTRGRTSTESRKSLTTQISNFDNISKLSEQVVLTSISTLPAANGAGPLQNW
Procedure: as §1, §2, §3, §4, §5, §6

[1] = read-out: IC50 detected in FLIPR, hOX1R
[2] = read-out: IC50 detected in FLIPR, hOX2R

SMILES	IC50 (hOX1R; [1])	IC50 (hOX2R; [2])	IC50 (hOX1R; IC50 detected in FLIPR, hOX1R)	IC50 (hOX2R; IC50 detected in FLIPR, hOX2R)
O=C(c1cc(F)ccc1-c1ncccn1)N1C2CC[C@H]1CC[C@@H]2COc1ccc(F)cn1 [Example 17]	0.043 µM	0.047 µM	–	–
Cc1ccc(-c2nccs2)c(C(=O)N2C3CC[C@H]2CC[C@@H]3OCc2ccc(F)cn2)c1 [Example 37]	–	–	0.02 µM	0.036 µM
O=C(c1cc(F)ccc1-n1nccn1)N1C2CC[C@H]1CC[C@@H]2COc1ccc(F)cn1 [Example 14]	–	–	0.016 µM	0.02 µM
Cc1ccc(C)c(C(=O)N2C3CC[C@H]2CC[C@@H]3OCc2ccc(F)cn2)c1 [Example 36]	0.217 µM	0.195 µM	–	–
Cc1ccc(-c2ncccn2)c(C(=O)N2C3CC[C@H]2CC[C@@H]3COc2ccc(F)cc2)c1 [Example 29]	0.068 µM	0.121 µM	–	–
Cc1ccc(OCC2CCC3CCC2N3C(=O)c2cc(C)ccc2-c2ncccn2)nc1 (stereo not shown) [Example 24]	–	–	0.056 µM	0.087 µM
Cc1ccc(-n2nccn2)c(C(=O)N2C3CCC(COc4ccc(F)cn4)C2CC3)c1 (single isomer, unassigned) [Example 3]	2.07 µM	1.42 µM	–	–
Cc1ccc(-c2ncccn2)c(C(=O)N2C3CC[C@H](COc4ccc(F)cn4)[C@@H]2CC3)c1 [Example 6]	2.55 µM	4.19 µM	–	–
Cc1ccc(-c2ncccn2)c(C(=O)N2C3CCC2C(F)(COc2ccc(F)cn2)CC3)c1 (stereo not shown) [Example 26]	0.048 µM	0.037 µM	–	–
Cc1nc(C(=O)N2C3CC[C@H]2CC[C@@H]3COc2ccc(F)cn2)c(-c2ccccc2)s1 [Example 10]	–	–	0.029 µM	0.073 µM
Cc1ccc(-c2ccncc2)c(C(=O)N2C3CC[C@H]2CC[C@@H]3COc2ccc(F)cn2)c1 [Example 13]	–	–	0.047 µM	0.663 µM
Cc1ccc(-c2ncccn2)c(C(=O)N2C3CC[C@H]2CC[C@@H]3COc2cccnc2)c1 [Example 31]	–	–	0.305 µM	0.221 µM
Cc1ccc(-n2cccn2)c(C(=O)N2C3CC[C@H]2CC[C@@H]3COc2ccc(F)cn2)c1 [Example 20]	–	–	0.007 µM	0.026 µM
O=C(c1cc(Cl)ccc1-n1nccn1)N1C2CC[C@H]1CC[C@@H]2COc1ccc(F)cn1 [Example 16]	–	–	0.056 µM	0.44 µM
Cc1ccc(-c2ncccn2)c(C(=O)N2C3CC[C@H]2CC[C@@H]3COc2ccncc2)c1 [Example 32]	0.007 µM	0.006 µM	–	–
Cc1ccc(-n2nccn2)c(C(=O)N2C3CCC(COc4ccc(F)cn4)C2CC3)c1 (single isomer, unassigned) [Example 4]	0.217 µM	0.195 µM	–	–
Cc1ccc(-c2ncccn2)c(C(=O)N2C3CCC(COc4ccc(F)cn4)C2CC3)c1 (single isomer, unassigned) [Example 7]	1.27 µM	0.291 µM	–	–
Cc1ccc(-c2ncccn2)c(C(=O)N2C3CCC(COc4ncc(Cl)cc4F)C2CC3)c1 (stereo not shown) [Example 25]	0.113 µM	0.124 µM	–	–

SMILES	IC50 (hOX1R; [1])	IC50 (hOX2R; [2])	IC50 (hOX1R; IC50 detected in FLIPR, hOX1R)	IC50 (hOX2R; IC50 detected in FLIPR, hOX2R)
O=C(c1cc(C(F)(F)F)ccc1-c1ncccn1)N1C2CC[C@H]1CC[C@@H]2COc1ccc(F)cn1 [Example 35]	–	–	2.07 µM	1.42 µM
Cc1ccc(-c2ccccn2)c(C(=O)N2C3CC[C@H]2CC[C@@H]3COc2ccc(F)cn2)c1 [Example 11]	0.321 µM	0.363 µM	–	–
Cc1cccc(S(=O)(=O)N2C3CC[C@H]2CC[C@@H]3COc2ccc(F)cn2)c1 [Example 22]	–	–	2.42 µM	1.37 µM
O=C(c1c(F)cccc1-n1nccn1)N1C2CC[C@H]1CC[C@@H]2COc1ccc(F)cn1 [Example 9]	–	–	0.024 µM	0.015 µM
O=C(c1cc(Cl)ccc1-n1ccnn1)N1C2CC[C@H]1CC[C@@H]2COc1ccc(F)cn1 [Example 19]	0.041 µM	0.372 µM	–	–
Cc1ccc(-c2ncccn2)c(C(=O)N2C3CCC2[C@@H](COc2ccccn2)CC3)c1 (stereo partly shown) [Example 23]	–	–	0.045 µM	0.097 µM
Cc1ccc(-c2ncccn2)c(C(=O)N2C3CCC(c4nc5ccccc5o4)C2CC3)c1 (stereo not shown) [Example 28]	–	–	0.034 µM	0.023 µM
Cc1ccc(-c2ncccn2)c(C(=O)N2C[C@H](COc3ccc(F)cn3)CC[C@H]2C)c1 [MK6096, reference compound]	0.036 µM	0.029 µM	–	–
Cc1ccc(-c2ncccn2)c(C(=O)N2C3CCC(C(=O)Nc4ccccc4O)C2CC3)c1 (stereo not shown) [Example 27]	–	–	3 µM	3 µM
Cc1cccc(C(=O)N2C3CC[C@H]2CC[C@@H]3COc2ccc(F)cn2)c1 [Example 21]	0.567 µM	0.741 µM	–	–
Cc1ccc(-c2cccnc2)c(C(=O)N2C3CCC2[C@@H](COc2ccc(F)cn2)CC3)c1 (stereo partly shown) [Example 33]	–	–	0.01 µM	0.024 µM
Cc1ccc(-c2ncccn2)c(C(=O)N2C3CC[C@H]2CC[C@@H]3COc2ccc(F)cc2F)c1 [Example 30]	–	–	0.489 µM	0.262 µM
O=C(c1cc(Cl)ccc1-c1ncccn1)N1C2CC[C@H]1CC[C@@H]2COc1ccc(F)cn1 [Example 18]	–	–	0.127 µM	0.904 µM
Cc1ccc(-c2ncccn2)c(C(=O)N2C3CCC(COc4ccc(F)cn4)C2CC3)c1 (single isomer, unassigned) [Example 8]	4.26 µM	4.61 µM	–	–
O=C(c1ccc(F)cc1-n1nccn1)N1C2CC[C@H]1CC[C@@H]2COc1ccc(F)cn1 [Example 15]	–	–	0.037 µM	0.055 µM
Cc1ccc(-c2cncnc2)c(C(=O)N2C3CCC2[C@@H](COc2ccc(F)cn2)CC3)c1 (stereo partly shown) [Example 34]	–	–	2.3 µM	2.51 µM
Cc1ccc(-c2ccccc2)c(C(=O)N2C3CC[C@H]2CC[C@@H]3COc2ccc(F)cn2)c1 [Example 12]	–	–	0.219 µM	0.206 µM
